According to patent US9574190B2, “Screening method for peptide binding to target molecule in pH-dependent manner” (The University of Tokyo, priority 2012, dated 2017):
Bridge positions count the residues as written; N and C are the ends. Square brackets hold non-standard residues; d marks the D form. Peptide text beside a SMILES is read from it. Tyr(3-NO2) = N[C@@H](Cc1ccc(O)c([N+](=O)[O-])c1)C(=O)O; dTyr(3-NO2) = N[C@H](Cc1ccc(O)c([N+](=O)[O-])c1)C(=O)O; Arg(NO2) = N=C(NCCC[C@H](N)C(=O)O)N[N+](=O)[O-]

Target: T1, FcRn (Homo sapiens, UniProt P55899)
T1 construct: human soluble FcRn chemically biotinated with NHS-biotin
T1 sequence (P55899 24-297 limits assumed): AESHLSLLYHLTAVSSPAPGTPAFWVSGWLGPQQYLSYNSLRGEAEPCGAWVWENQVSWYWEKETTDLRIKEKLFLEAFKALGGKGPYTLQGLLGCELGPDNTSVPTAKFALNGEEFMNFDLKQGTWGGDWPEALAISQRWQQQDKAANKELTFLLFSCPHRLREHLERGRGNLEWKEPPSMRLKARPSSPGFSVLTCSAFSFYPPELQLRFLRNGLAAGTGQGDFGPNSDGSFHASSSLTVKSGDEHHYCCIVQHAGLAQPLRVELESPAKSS
T1 sequence (P61769 21-119 partner): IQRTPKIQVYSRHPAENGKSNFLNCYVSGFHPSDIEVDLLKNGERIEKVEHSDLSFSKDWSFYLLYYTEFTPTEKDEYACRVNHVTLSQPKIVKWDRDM
Assay: Biacore T100 measurement of dissociation constant of solid-phase synthesized peptide with immobilized FcRn
Type: binding
Description: In order to find whether a peptide alone interacts with FcRn in a pH dependent manner, the peptide 2G01D not having SGSGS on the C-terminal side of 8D-01 and amidated at the C-terminal was synthesized on a solid phase and a dissociation constant Kd binding constant was measured using Biacore T100 (GE Healthcare). FcRn was immobilized onto a sensor chip by an amine coupling method. The following is the peptide 2G01D:
On the other hand, a solid-phase synthesized peptide 2G01D was added as an analyte to a phosphate buffer having a pH 6.0 or 7.4 and a dissociation constant was measured.

`CC(C)C[C@@H]1NC(=O)[C@H](Cc2ccc(O)c([N+](=O)[O-])c2)NC(=O)[C@H](CC(C)C)NC(=O)[C@@H]2CCCN2C(=O)[C@H](CC(=O)O)NC(=O)CNC(=O)[C@H](CCCNC(=N)N[N+](=O)[O-])NC(=O)[C@H](CC(N)=O)NC(=O)[C@H](Cc2ccc(O)cc2)NC(=O)[C@H](CC(C)C)NC(=O)[C@H](Cc2ccc(O)c([N+](=O)[O-])c2)NC(=O)[C@H](Cc2ccccc2)NC(=O)[C@@H](Cc2ccc(O)c([N+](=O)[O-])c2)NC(=O)CSC[C@@H](C(=O)NCC(N)=O)NC1=O` [2G01D] ({CH2CO}-[dTyr(3-NO2)]F[Tyr(3-NO2)]LYN[Arg(NO2)]GDPL[Tyr(3-NO2)]LCG-NH2; thioether N-14) was tested. Which koff (pH 6.0, phosphate buffer) did it give?
The koff was 0.00394 s⁻¹.

And the kon (pH 6.0, phosphate buffer)?
The kon was 925000 M⁻¹ s⁻¹.

And the koff (pH 7.4, phosphate buffer)?
Its koff is 0.00955 s⁻¹.

And the kon (pH 7.4, phosphate buffer)?
The kon was 32600 M⁻¹ s⁻¹.
